Test results as given in patent US20190092720A1, “FUNCTIONALIZED BENZAMIDE DERIVATIVES AS ANTIVIRAL AGENTS AGAINST HBV INFECTION” (BARUCH S. BLUMBERG INSTITUTE, priority 2012, published 2019).
Read-outs that look alike come from different tables or passages of the source.

Tests used:
HBV capsids = assay: Particle gel assay of nucleocapsids in AML12HBV10 cells; format: cell-based, Hepatitis B virus (HBV); details: 2 days, FIG. 1 panel B
Procedure: (§1) FIG. 1. Antiviral mechanism of the compounds of the present invention. AML12HBV10 cells were left untreated (NT) or treated with the indicated concentrations of the compounds of the disclosure Compound 6 and Compound 19, respectively, for 2 days. Bay-4109 (3 µM) or AT-61 (25 µM) served as positive controls. (A) Intracellular viral RNA was determined by Northern blot hybridization. Ribosomal RNA served as a loading control. (B) The total amounts of nucleocapsids were determined by a particle gel assay. (C) Encapsidated pgRNA were extracted and measured by Northern blot. (D) Nucleocapsid-associated HBV DNA was quantified by alkaline-treatment of nucleocapsids on the membrane following the particle gel assay and hybridized with a HBV-specific riboprobe. (E) HBV DNA replication intermediates were extracted and determined by Southern blot hybridizations.
(§2) Procedures of viral capsids and nucleocapsid-associated DNA analysis: AML12HB10 cells were lysed by addition of 300 μl buffer containing 10 mM Tris-HCl (pH7.6), 100 mM NaCl, 1 mM EDTA and 0.1% NP-40 to each well of 12-well plate. Cell debries were removed by centrifugation at 5000 g for 10 minutes. Ten microliters of the clarified cell lysates were fractionated by electrophoresis through nondenaturing 1% agarose gels and transferred to a nitrocellulose filter by blotting with TNE buffer (10 mM Tris-HCl, pH7.6; 150 mM NaCl and 1 mM EDTA). HBV capsids were detected by probing the membrane with an antibody against HBV core protein (DAKO). […] To detect capsid associated HBV DNA, the membrane were treated with buffer containing 0.5N NaOH and 1.5 M NaCl for 5 minutes and followed by neutralization with buffer containing 1 M TRIS-HCl and 1.5M NaCl for 5 minutes. The viral DNA was detected by hybridization with a α-^32P-UTP (800 Ci/mmol, Perkin Elmer) labeled minus strand specific full-length HBV riboprobe (Xu et al.).

encapsidated pgRNA = assay: Encapsidated pgRNA by Northern blot in AML12HBV10 cells; format: cell-based, Hepatitis B virus (HBV); details: 2 days, FIG. 1 panel C
Procedure: as §1
Determination of encapsidated pgRNA: AML12HBV10 cells were lysed by addition of 600 μl of lysis buffer (50 mM Tris-HCl [pH 7.5], 1 mM EDTA, 150 mM NaCl, 1% NP-40) into each well of 12-well plates. The nuclei were removed by centrifugation at 5,000 g for 10 minutes. One-half of the sample was mixed with 6 U of micrococcal nuclease (Pharmacia) and 15 μl of 100 mM CaCl2 and incubated for 15 minutes at 37° C. to digest free nucleic acids. The reaction was stopped with 6 μl of 0.5 M EDTA, and capsids were precipitated by adding 125 μl of 35% polyethylene glycol 8000 in 1.75 M NaCl to the reaction and incubating in ice for 30 minutes, followed by centrifugation at 6,000 g for 10 minutes at 4° C. Pellets were re-suspended in 50 μl of TNE buffer (10 mM Tris-HCl [pH 8], 100 mM NaCl, 1 mM EDTA). pgRNA was extracted by the addition of 1 ml of Trizol reagent. The encapsidated pgRNA were electrophoresed through a 2.2 M formaldehyde-1% agarose gel, transferred to a nylon membrane, and immobilized by UV cross-linking (Stratagene). Hybridization was performed with an alpha-^32P-UTP labeled riboprobe specific for plus strand of HBV genome.

[1] = system: capsid-associated HBV DNA; assay: Capsid-associated HBV DNA and DNA replication intermediates in AML12HBV10 cells; format: cell-based, Hepatitis B virus (HBV); details: 2 days, FIG. 1 panels D and E
Procedure: as §1, §2
To analyze the HBV DNA replication intermediates, cells were lysed by adding into each well of the 12-well plates 0.5 ml of lysis buffer containing 10 mM Tris-HCl (pH 8.0), 1 mM EDTA, 1% NP40 and 2% sucrose and incubating at 37° C. for 10 minutes. Cell debris and nuclei were removed by centrifugation and the supernatant was mixed with 130 μl of 35% polyethylene glycol (PEG) 8000 containing 1.5 M NaCl. After 1 hour incubation in ice, viral nucleocapsids were pelleted by centrifugation at 6,000×g for 5 minutes at 4° C., followed by 1 hour digestion at 37° C. in 400 μl of digestion buffer containing 0.5 mg/ml pronase (Calbiochem), 0.5% SDS, 150 mM NaCl, 25 mM Tris-HCl (pH 8.0) and 10 mM EDTA. The digestion mixture was extracted twice with phenol and DNA was precipitated with ethanol, dissolved in TE buffer (10 mM Tris-HCl, pH 8.0; 0.1 mM EDTA). […]

[2] = system: HBV replication in AML12HBV10 cells; assay: Antiviral efficacy in AML12HBV10 cells (HBV DNA dot-blot hybridization); format: cell-based, Hepatitis B virus (HBV)
Procedure: The HBV replication inhibitors of the present invention are capable of treating and preventing diseases associated with HBV infection.
The antiviral efficacy of the compounds of the disclosure, as presented in Table 1, were determined in AML12HBV10 cells. AML12HBV10 is an immortalized murine hepatocyte (AML12)-derived stable cell line that supports robust HBV replication in a tetracycline inducible manner (Xu et al.). The cells were seeded into 96 well plates at a density of 2×10^4 cells per well and cultured in DMEM/F12 media with 10% fetal bovine serum in the absence of tetracycline to allow pgRNA transcription and HBV DNA replication. One day after seeding, cells were left untreated or treated with a serial dilution of testing compounds, ranging from 50 μM to 0.39 μM, for 48 hours. Cells were then lysed by adding into each well of 100 μl lysis buffer containing 10 mM Tris-HCl (pH 7.6), 1 mM EDTA, 100 mM NaCl and 1% NP-40 and incubated at 37° C. for 30 minutes. Half amount (50 μl) of cell lysate from each well was combined with equal volume of denaturing solution containing 0.5N NaOH and 1.5M NaCl. After 5 minute incubation, 100 µl of neutralization solution (1M Tris-HCl, pH 7.4, 1.5M NaCl) was added into each well. The denatured cell lysates (totally 200 μl) were applied onto Nylon membrane using 96-well dot-blot manifold (Biorad). HBV DNA in the cell lysates were determined by dot-blot hybridization with alpha-^32P-UTP-labelled riboprobe specific for HBV minus strand DNA. The antiviral efficacy of a compound of the disclosure was expressed as the concentration that reduces the amount of HBV DNA by 50% (EC50).

[3] = Cytotoxicity in AML12HBV10 cells (MTT assay); format: cell-based, murine; details: mouse, concentration that reduces viability by 50%, serial dilution 50 μM to 0.39 μM
Procedure: (§3) Determination of cytotoxicity of compounds of the disclosure in AML12HBV10 cells: To determine the cytotoxicity of the compounds, AML12HBV10 cells were seeded into 96-well plates at a density of 2×10^4 cells per well and cultured in DMEM/F12 media with 10% fetal bovine serum in the absence of tetracycline to allow pgRNA transcription and HBV DNA replication. One day after seeding, cells were left untreated or treated with a serial dilution of testing compounds, ranging from 50 μM to 0.39 μM, for 48 hours. The cell viability was measured by a MTT assay, following procedure provided by the manufacturer (Promega). The cytotoxicity of a compound was expressed as the concentration of compound that reduces the viability of the cells by 50% (CC50).

[4] = system: HBV replication in HepDES19 cells; assay: Antiviral activity in HepDES19 cells (core-associated HBV DNA, Southern blot); format: cell-based, Hepatitis B virus (HBV); details: concentration that reduces core-associated HBV DNA by 50%, 6 days, serial dilution 10 μM to 0.018 μM
From the text: Determination of antiviral activity of compounds of the disclosure, as presented in Table 1, in human hepatoma-derived cell lines: To further confirm the antiviral activity of the compounds of the disclosure against HBV in human hepatocyte-derived cells, HepDES19 cells, a human hepatoma cell line supporting HBV replication in a tetracycline inducible manner (Guo et al., 2007), seeded into 12-well plates at a density of 5×10^5 cells per well and cultured in DMEM/F12 media with 10% fetal bovine serum and 1 μg/ml tetracycline. Two days after seeding, the cells were mock-treated or treated with a serial dilution of compounds of the disclosure, ranging from 10 μM to 0.018 μM, for 6 days in the absence of tetracycline. Upon the completion of treatment, cells were lysed by adding into each well of the 12-well plates 0.5 ml of lysis buffer containing 10 mM Tris-HCl (pH 8.0), 1 mM EDTA, 1% NP40 and 2% sucrose and incubating at 37° C. for 10 minutes. Cell debris and nuclei were removed by centrifugation and the supernatant was mixed with 130 μl of 35% polyethylene glycol (PEG) 8000 containing 1.5 M NaCl. After 1 hour incubation in ice, viral nucleocapsids were pelleted by centrifugation at 6,000×g for 5 min at 4° C., followed by 1 hour digestion at 37° C. in 400 μl of digestion buffer containing 0.5 mg/ml pronase (Calbiochem), 0.5% SDS, 150 mM NaCl, 25 mM Tris-HCl (pH 8.0) and 10 mM EDTA. The digestion mixture was extracted twice with phenol and DNA was precipitated with ethanol, dissolved in TE buffer (10 mM Tris-HCl, pH 8.0; 0.1 mM EDTA). One half of the DNA sample from each well was resolved by electrophoresis into a 1.5% agarose gel. The gel was then subjected to denaturation in a solution containing 0.5 M NaOH and 1.5 M NaCl, followed by neutralization in a buffer containing 1 M Tris-HCl (pH7.4) and 1.5 M NaCl. DNA was then blotted onto Hybond-XL membrane (GE Health care) in 20×SSC buffer. The amounts of cytoplasmic HBV core-associated HBV DNA were determined by Southern blot hybridization and the antiviral efficacy of a compound was expressed as its concentration that reduce the amount of HBV DNA by 50% (EC50) or 90% (EC90).

AML12HBV10 cells = assay: Cytotoxicity in AML12HBV10 cells (MTT assay); format: cell-based, murine; details: concentration that reduces viability by 50%, 48 hours, serial dilution 50 μM to 0.39 μM
Procedure: as §3

HBV mRNA = assay: Intracellular viral RNA by Northern blot in AML12HBV10 cells; format: cell-based, Hepatitis B virus (HBV); details: 2 days, FIG. 1 panel A
Procedure: as §1
Procedure for analysis of HBV mRNA: Upon the completion of treatment, total cellular RNA was extracted with TRIzol reagents (Invitrogen). Five micrograms of total RNA was resolved in 1.5% agarose gel containing 2.2 M formadelhyde and transferred onto Hybond-XL membrane in 20×SSC buffer. The amounts of HBV mRNA were determined by Northern blot hybridization with an alpha-^32P-UTP labeled riboprobe specific for plus strand of HBV genome.

[5] = Hepatitis B virus, AML12HBV10, 48 h, read-out: AML12HBV10 EC50, concentration that reduces the amount of HBV DNA by 50%, serial dilution 50 μM to 0.39 μM
[6] = Hepatitis B virus, HepDES19, 144 h

Row | Structure (SMILES) | EC50 [2, 5] [µM] | CC50 at 48 h [3] [µM] | other results
1 | O=C(N/C(C(=O)N1CCCCC1)=C(/Cl)c1ccccc1)c1ccccc1 [AT-61, reference compound] | – | – | capsid formation (HBV capsids): did not affect; level of encapsidated pgRNA (encapsidated pgRNA): dose-dependently reduced; capsid-associated HBV DNA / DNA synthesis [1]: dose-dependently reduced
2 | COC(=O)C1=C(C)NC(c2ncc(F)cc2F)=N[C@H]1c1ccc(F)cc1Cl [Bay41-4109, reference compound] | – | – | capsid formation (HBV capsids): completely abolished; level of encapsidated pgRNA (encapsidated pgRNA): completely abolished; capsid-associated HBV DNA / DNA synthesis [1]: completely abolished
3 | O=C(Nc1ccccc1)c1scc2c1OCCO2 [Entry 7] | 3 | > 50 | EC50 [4]: 3 µM
4 | O=C(Nc1ccccc1)c1scc2c1OCCO2 [Entry 10] | – | – | EC50 ([2]; read-out: AML12HBV10 EC50, concentration that reduces the amount of HBV DNA by 50%, 48 hours, serial dilution 50 μM to 0.39 μM): 4.48 µM; CC50 (AML12HBV10 cells): > 50 µM; EC50 [4]: 8.45 µM
5 | O=C(Nc1cccc(Cl)c1)c1cccc(Cl)c1Cl [Entry 14] | 8.3 | > 50 | EC50 [4, 6]: 22.2 µM
6 | O=C(Nc1cccc(Cl)c1)c1cccc2ccccc12 [Entry 18] | 6.52 | > 50 | EC50 [4, 6]: 4.2 µM
7 | O=C(Nc1cccc(Cl)c1)c1cccc2c1OCCO2 [Entry 19] | < 0.4 | > 50 | amount of viral mRNA (HBV mRNA): did not affect; capsid formation (HBV capsids): did not significantly affect; level of encapsidated pgRNA (encapsidated pgRNA): dose-dependently reduced; capsid-associated HBV DNA / DNA synthesis [1]: reduced encapsidated pgRNA and capsid-associated HBV DNA in a dose-dependent manner
8 | O=C(Nc1cccc(Cl)c1)c1cccc2c1OCCCO2 [Entry 42] | 2.75 | > 25 | –
9 | O=C(Nc1ccc(F)c(F)c1)c1cccc2c1OCCCO2 [Entry 43] | 1.93 | > 25 | –
10 | O=C(Nc1ccc(F)c(Cl)c1)c1cccc2c1OCCCO2 [Entry 44] | 1.1 | > 25 | –
11 | O=C(Nc1ccc(Cl)c(F)c1)c1cccc2c1CCCC2 [Entry 45] | 1.66 | > 25 | –
12 | O=C(Nc1ccc(F)c(F)c1)c1cccc2c1CCCC2 [Entry 46] | 1.48 | > 25 | –
